In ChEMBL document CHEMBL6096705, “Identification of a Chemical Probe for BLT2 Activation by Scaffold Hopping” (J Med Chem, 2025):
Converted amounts (≈) assume the structure as drawn.

Experiments:
[1] = target: T1, Leukotriene B4 receptor 2 (Homo sapiens, UniProt Q9NPC1); test: Agonist activity at human BLT2 expressed in CHO-K1 cells overexpressing GNA14 assessed as induction of IP-1 accumulation incubated for 90 mins by HTRF assay; format: functional, cell-based
T1 sequence (Q9NPC1 whole entry): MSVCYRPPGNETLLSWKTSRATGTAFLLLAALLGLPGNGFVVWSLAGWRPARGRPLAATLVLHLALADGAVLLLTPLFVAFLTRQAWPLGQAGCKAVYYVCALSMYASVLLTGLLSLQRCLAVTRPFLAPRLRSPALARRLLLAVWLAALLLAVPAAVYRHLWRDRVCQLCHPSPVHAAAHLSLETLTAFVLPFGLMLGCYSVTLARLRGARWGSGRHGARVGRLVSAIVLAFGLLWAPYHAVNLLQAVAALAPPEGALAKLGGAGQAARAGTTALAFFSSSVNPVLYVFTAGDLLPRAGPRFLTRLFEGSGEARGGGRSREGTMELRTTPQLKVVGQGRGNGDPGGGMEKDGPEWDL

[2] = Binding affinity to BLT1 (unknown origin); set-up: species or system Homo sapiens
[3] = target: T1, Leukotriene B4 receptor 2; test: Agonist activity at BLT2 (unknown origin); format: functional
[4] = target: T1, Leukotriene B4 receptor 2; test: Agonist activity at human BLT2 expressed in CHO-K1 cells overexpressing GNAi2 assessed as inhibition of forskolin-induced cAMP accumulation preincubated for 40 mins followed by forskolin addition and measured after 20 mins by HTRF assay; format: functional, cell-based
[5] = Oral bioavailability in male C57BL/6J mouse at 10 mg/kg by LC-MS analysis; format: ADME, organism-based; details: in vivo
[6] = AUC (0 to infinity) in male C57BL/6J mouse at 3 mg/kg, iv by LC-MS analysis; format: ADME, organism-based; details: in vivo
[7] = Cmax in male C57BL/6J mouse at 10 mg/kg, po by LC-MS analysis; format: ADME, organism-based; details: in vivo
[8] = Tmax in male C57BL/6J mouse at 10 mg/kg, po by LC-MS analysis; format: ADME, organism-based; details: in vivo
HEK-293T = test: Cytotoxicity against HEK293T cells assessed as effect on cell viability at 10 uM measured after 24 hrs by CellTiter-Glo assay; format: toxicity, cell-based; details: human
[9] = Aqueous solubility of compound in PBS buffer at pH 7.4 by precipitation based plate reader analysis; format: physicochemical
[10] = AUC (0 to infinity) in male C57BL/6J mouse at 10 mg/kg, po by LC-MS analysis; format: ADME, organism-based; details: in vivo
[11] = Metabolic stability in Sprague-Dawley rat liver microsomes assessed as parent compound remaining measured upto 60 mins in presence of NADPH by HPLC analysis; format: ADME, Microsome; details: read-out: Stability
[12] = Toxicity in male C57BL/6J mouse assessed as effect on normal behavior at 10 mg/kg, SC; format: organism-based; details: in vivo
[13] = Half-life in male C57BL/6J mouse at 10 mg/kg, SC by LC-MS analysis; format: ADME, organism-based; details: in vivo
[14] = Cytotoxicity against human MRC9 cells assessed as effect on cell viability at 10 uM measured after 24 hrs by CellTiter-Glo assay; format: toxicity, cell-based; details: mrc9, 24 h
[15] = Toxicity in male C57BL/6J mouse assessed as effect on normal behavior at 3 mg/kg, iv; format: organism-based; details: in vivo
U2OS = test: Cytotoxicity against human U2OS cells assessed as effect on cell viability at 10 uM measured after 24 hrs by CellTiter-Glo assay; format: toxicity, cell-based
[16] = Toxicity in male C57BL/6J mouse assessed as effect on normal behavior at 10 mg/kg, po; format: organism-based; details: in vivo
[17] = AUC (0 to infinity) in male C57BL/6J mouse at 10 mg/kg, SC by LC-MS analysis; format: ADME, organism-based; details: in vivo
[18] = Half-life in male C57BL/6J mouse at 3 mg/kg, iv by LC-MS analysis; format: ADME, organism-based; details: in vivo
HepG2 = test: Cytotoxicity against human HepG2 cells assessed as effect on cell viability at 100 uM measured after 72 hrs by CellTiter-Glo assay; format: toxicity, cell-based; details: hepg2, 72 h
[19] = Half-life in male C57BL/6J mouse at 10 mg/kg, po by LC-MS analysis; format: ADME, organism-based; details: in vivo
[20] = Cmax in male C57BL/6J mouse at 3 mg/kg, iv by LC-MS analysis; format: ADME, organism-based; details: in vivo
[21] = target: T2, Type-1 angiotensin II receptor (Homo sapiens, UniProt P30556)
T2 sequence (P30556 whole entry): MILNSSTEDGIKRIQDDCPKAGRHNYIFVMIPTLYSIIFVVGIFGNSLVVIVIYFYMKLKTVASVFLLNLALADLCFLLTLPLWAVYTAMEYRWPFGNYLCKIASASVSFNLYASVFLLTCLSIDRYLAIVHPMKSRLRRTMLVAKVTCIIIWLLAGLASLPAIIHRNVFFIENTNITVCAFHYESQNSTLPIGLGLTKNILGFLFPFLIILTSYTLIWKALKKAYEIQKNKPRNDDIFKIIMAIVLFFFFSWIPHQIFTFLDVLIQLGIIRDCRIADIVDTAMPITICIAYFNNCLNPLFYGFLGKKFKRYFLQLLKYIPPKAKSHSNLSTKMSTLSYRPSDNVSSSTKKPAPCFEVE
Description: Antagonist activity at human AT1 receptor expressed in CHO-K1 cells co-expressing GNA14 assessed as inhibition of Val5-Angiotensin-II induced IP-1 accumulation incubated for 90 mins by HTRF assay

[22] = target: T1, Leukotriene B4 receptor 2; test: Displacement of FITC-labeled tracer from Lumi4 Tb-labeled BLT2 (unknown origin) expressed in CHO-K1 cells incubated for 1 hrs by Tag-lite displacement based HTRF assay; format: cell-based

With `CCCCC(=O)N1CCc2ccc(-c3ccccc3C(=O)O)cc2C1` the EC50 [1] was 18.4 µM.
Molecule `CCCCC/C=C\C[C@@H](O)/C=C/C=C/C=C\[C@@H](O)CCCC(=O)O` [LEUKOTRIENE_B4] has a pKd [2] of 8.5.
Molecule `CCCCC[C@H](O)/C=C/C=C/C/C=C\CCCC(=O)O` has a pEC50 [3] of 7.72 and an EC50 [4] of 0.0014 µM.
For `CCCCC(=O)N1CC2(C1)CN(c1ccccc1-c1nnn[nH]1)C2`, the bioavailability [5] was 51%, the AUC(0-inf) [6] was 1020 ng·h/mL and the Cmax [7] was 1990 ng/mL. For the same molecule, the Tmax [8] was 15 min, the Activity (HEK-293T) was “Non-toxic” and the solubility kinetic [9] was ≥ 1000 µM. The AUC(0-inf) [10] was 1730 ng·h/mL, the remaining at 1 h [11] was 97.5% and the Activity [12] was “Non-toxic”. For the same molecule, the half-life [13] was 62 min, the Activity [14] was “Non-toxic” and the Activity [15] was “Non-toxic”. The Activity (U2OS) was “Non-toxic”, the Activity [16] was “Non-toxic” and the AUC(0-inf) [17] was 4080 ng·h/mL. The half-life [18] was 19 min, the Activity (HepG2) was “Non-toxic” and the half-life [19] was 154 min. For the same molecule, the Cmax [20] was 3290 ng/mL.
With `CCCCC(=O)N1CCC2(CC1)CCN(c1ccccc1-c1nnn[nH]1)C2` the solubility kinetic [9] was ≥ 1000 µM, the remaining at 1 h [11] was 99.8% and the IC50 [21] was 13.6 µM.
Work on `CCc1cnc(N2Cc3ccc(-c4ccccc4-c4nnn[nH]4)cc3C2)s1` yielded a solubility kinetic [9] of 250 µM (≈ 93.6 µg/mL), a remaining at 1 h [11] of 89% and an IC50 [21] of 79 µM.
In the case of `CCc1nnc(N2Cc3ccc(-c4ccccc4-c4nnn[nH]4)cc3C2)o1`, the solubility kinetic [9] is reported as 750 µM (≈ 270 µg/mL), the remaining at 1 h [11] is reported as 101% and the IC50 [21] is reported as 15.8 µM.
For `CCCCC(=O)N1Cc2cc(-c3ccccc3-c3nnn[nH]3)ccc2C1C` (stereo unspecified), the EC50 [1] was 1.39 µM.
In the case of `CCCCC(=O)N(Cc1ccc(-c2ccccc2C(=O)O)cc1)c1ccccc1`, the solubility kinetic [9] is reported as 250 µM (≈ 96.9 µg/mL), the remaining at 1 h [11] is reported as 66% and the IC50 [22] is reported as 0.063 µM. The IC50 [21] was 53 µM and the Activity (HepG2) was “Non-toxic”.
`CCCCC1(C)C(=O)N(Cc2ccc(-c3ccccc3C(=O)O)cc2)c2ccccc21` (stereo unspecified) showed an IC50 [21] of 58 µM.
For `CCCCC(=O)N1Cc2ccc(-c3ccccc3-c3nnn[nH]3)cc2C1`, the IC50 [21] was > 400 µM.
With `CCCCC1=NC2(CCCC2)C(=O)N1Cc1ccc(-c2ccccc2-c2nnn[nH]2)cc1` [IRBESARTAN] the IC50 [22] was ≥ 1.5 µM.
